In brackets after ≈: the same amount, converted by molar mass.

Holding throughout (format): cell-based
Assay [1] concerns Klebsiella pneumoniae 1000-02. As to the kind of experiment: minimum inhibitory concentration (MIC) testing according to CLSI guidelines, Klebsiella pneumoniae. The settings on record: ciprofloxacin-resistant, ESBL-expressing clinical isolate 1000-02, overnight incubation, lower of duplicate values; for MIC: Klebsiella pneumoniae, read-out: AB-MBT: Klebsiella pneumoniae 1000-02: MIC (MstRcnt). The method, boiled down:
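MIC by CLSI broth dilution with 2-fold concentration steps and overnight incubation; lowest concentration visibly inhibiting growth versus drug-free control. Ciprofloxacin-resistant, ESBL-expressing clinical isolate 1000-02. Run in duplicate, lower value reported when within 2-fold, with QC organisms and reference compounds per run.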

The test system of assay [2] is Pseudomonas aeruginosa UC-12120. As to the kind of experiment: minimum inhibitory concentration (MIC) testing according to CLSI guidelines, Pseudomonas aeruginosa. The settings on record: UC-12120, wild-type, labeled as 1091-05, overnight incubation, lower of duplicate values; for MIC: Pseudomonas aeruginosa, UC12120, read-out: AB-MBT: Pseudomonas aeruginosa 1091-05: MIC (MstRcn). The method, boiled down: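 Broth dilution MIC per CLSI guidelines against wild-type P. aeruginosa UC-12120 (1091-05), using 2-fold drug dilutions and overnight incubation with visual reading of lowest growth-inhibiting concentration. Tested in duplicate; lower value reported when within 2-fold, with control organisms and reference compounds for quality control.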

The subject of assay [3] is Acinetobacter baumannii/haemolyticus AB-3167. Nature of the assay: minimum inhibitory concentration (MIC) testing according to CLSI guidelines, Acinetobacter. The settings on record: multidrug-resistant clinical isolate AB-3167, overnight incubation, lower of duplicate values; for MIC: Acinetobacter baumannii, read-out: AB-MBT: Acinetobacter baumanii AB-3167: MIC (MstRcnt). The essentials: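 Broth dilution MIC per CLSI M7-A8/M100-S20 against multidrug-resistant clinical isolate AB-3167, using 2-fold drug dilutions and overnight incubation; MIC is the lowest concentration without visible growth. Duplicates within 2-fold reported as the lower value, with control strains and reference compounds in range.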

The MIC is the lowest concentration that inhibits growth of the organism. Regarding `CC(C)(O/N=C(\C(=O)N[C@@H]1C(=O)N(S(=O)(=O)O)[C@@H]1CNC(=O)c1ccnc(-c2cc(=O)c(O)c[nH]2)n1)c1csc(N)n1)C(=O)O` [Example 22, 2-({[(1Z)-1-(2-amino-1,3-thiazol-4-yl)-2-({(2R,3S)-2-[({[2-(5-hydroxy-4-oxo-1,4-dihydropyridin-2-yl)pyrimidin-4-yl]carbonyl}amino)methyl]-4-oxo-1-sulfoazetidin-3-yl}amino)-2-oxoethylidene]amino}oxy)-2-methylpropanoic acid], the minimal inhibitory concentration (MIC) in assay [1] came out at 32 µg/mL (≈ 48.1 µM); in assay [2] it was 4 µg/mL (≈ 6.01 µM); in assay [3], 16 µg/mL (≈ 24 µM).
On to `CC(C)(O/N=C(\C(=O)N[C@@H]1C(=O)N(S(=O)(=O)O)[C@@H]1Cn1cc(COCc2cc(=O)c(O)cn2O)nn1)c1csc(N)n1)C(=O)O` [Example 1, 2-({[(1Z)-1-(2-amino-1,3-thiazol-4-yl)-2-({(2R,3S)-2-[(4-{[(1,5-dihydroxy-4-oxo-1,4-dihydropyridin-2-yl)methoxy]methyl}-1H-1,2,3-triazol-1-yl)methyl]-4-oxo-1-sulfoazetidin-3-yl}amino)-2-oxoethylidene]amino}oxy)-2-methylpropanoic acid], for which the results for the minimal inhibitory concentration (MIC) in assay [1], in assay [2] and in assay [3] were 0.25 µg/mL (≈ 0.372 µM), 0.25 µg/mL (≈ 0.372 µM) and 0.5 µg/mL (≈ 0.744 µM), respectively.
For the compound `CC(C)(O/N=C(\C(=O)N[C@@H]1C(=O)N(S(=O)(=O)[O-])[C@@H]1CNC(=O)c1coc(-c2cc(=O)c(O)c[nH]2)n1)c1csc(N)n1)C(=O)[O-].[Na+].[Na+]` [Example 18, 2-({[(1Z)-1-(2-amino-1,3-thiazol-4-yl)-2-({(2R,3S)-2-[({[2-(5-hydroxy-4-oxo-1,4-dihydropyridin-2-yl)-1,3-oxazol-4-yl]carbonyl}amino)methyl]-4-oxo-1-sulfoazetidin-3-yl}amino)-2-oxoethylidene]amino}oxy)-2-methylpropanoic acid, bis sodium salt], in assay [1], the “AB-MBT: Klebsiella pneumoniae 1000-02: MIC (MstRcnt)” value was 0.500 µg/mL. Also, in assay [2], the “AB-MBT: Pseudomonas aeruginosa 1091-05: MIC (MstRcn)” value came to 0.250 µg/mL. Also, in assay [3], the “AB-MBT: Acinetobacter baumanii AB-3167: MIC (MstRcnt)” value turned out to be 1.00 µg/mL.
In the case of `Cn1cc(O)c(=O)cc1C(=O)NC[C@@H]1[C@H](NC(=O)/C(=N\OC(C)(C)C(=O)O)c2csc(N)n2)C(=O)N1S(=O)(=O)O` [Example 35, 2-({[(1Z)-1-(2-amino-1,3-thiazol-4-yl)-2-{[(2R,3S)-2-({[(5-hydroxy-1-methyl-4-oxo-1,4-dihydropyridin-2-yl)carbonyl]amino}methyl)-4-oxo-1-sulfoazetidin-3-yl]amino}-2-oxoethylidene]amino}oxy)-2-methylpropanoic acid], the values for the MIC in assay [1], in assay [2] and in assay [3] were 0.25 µg/mL (≈ 0.416 µM), 4 µg/mL (≈ 6.65 µM) and 0.5 µg/mL (≈ 0.831 µM), respectively.
The corresponding values for `CC(C)(O/N=C(\C(=O)N[C@@H]1C(=O)N(S(=O)(=O)O)[C@@H]1CNC(=O)Nc1cc(=O)c(O)c[nH]1)c1csc(N)n1)C(=O)O` [Example 57, 2-({[(1Z)-1-(2-amino-1,3-thiazol-4-yl)-2-{[(2R,3S)-2-({[(5-hydroxy-4-oxo-1,4-dihydropyridin-2-yl)carbamoyl]amino}methyl)-4-oxo-1-sulfoazetidin-3-yl]amino}-2-oxoethylidene]amino}oxy)-2-methylpropanoic acid] are 4 µg/mL (≈ 6.64 µM), 2 µg/mL (≈ 3.32 µM) and 1 µg/mL (≈ 1.66 µM).

(Values after patent publication US20130252935A1, “Monobactams” (PFIZER INC., priority 2010, published 2013).)
